Data: patent US6127136A, “Detection of dioxin-like compounds by detection of transformed Ah receptor/ARNT complex” (Paracelsian, Inc., priority 1996, dated 2000)

Target: transformed Ah receptor/ARNT complex (Cavia porcellus, UniProt Q6J287)
Experiment: sandwich ELISA detecting transformed Ah receptor/ARNT complex, DRE and anti-ARNT dilutions
Format: biochemical, guinea pig (hepatic cytosol)
Set-up: from tissue; host or cells: hepatic cytosol of male Hartley guinea pigs (animals from Cornell Research Animal Resources)
Procedure: Working dilution of anti-ARNT was diluted (1:200, 50 uL in 10 mL) in PBS plus 0.02% tween 20 plus 0.1% bovine serum albumin. Working dilution of anti-Rabbit/alkaline phosphatase (Sigma, St. Louis, Mo.) was prepared by diluting 20 uL into 20 mL PBS plus 0.02% tween 20 plus 0.1% bovine serum albumin to make a 1:1000 dilution. Diethanolamine buffer was prepared by dissolving 0.4 g Magnesium chloride hexahydrate, 0.8 g sodium azide, 338 mL diethanolamine in 2.5 L deionized water, adjusting pH to 9.8 with concentrated HCl, and adjusting volume to 4 liters. PnPP stock was prepared fresh by dissoving two 15 mg tablets of para-nitro phenyl phosphate (Sigma, St. Louis, Mo.) in 20 mL diethanolamine buffer.
B-DRE (sequence ID 2) and DRE-D (sequence ID 1) were hybridized as described above. Cytosol was prepared as described above. Thirty five mL of cytosol was thawed and pooled. The cytosol was divided into two 17 mL aliquots and treated with either 17 uL DMSO, sample labled (-) or 17 uL 10 uM TCDD in DMSO with the sample labled (+). DMSO-treated cytosol (1700 uL) was mixed with 10.6 uL hybridized DRE (sample labeled B-). TCDD-treated cytosol (1700 uL) was mixed with 10.6 uL hybridized DRE (sample labeled B+).
A neutravidin-coated 96 well ELISA plate (Pierce), with the standard 12×8 well matrix, labeled 1-12 horizontally and A-H vertically, was warmed to room temperature. DMSO treated cytosol (-) was put in wells A2-A12 x D2-D12 at 200 uL per well. TCDD treated cytosol (+) was put in wells E2-E12 x H2-H12 at 200 uL per well. Untreated Cytosol plus DRE sample (B-), 400 uL per well, was put in wells A1-D1. Treated Cytosol sample plus DRE (13+), 400 uL per well, was put in wells […]. The Untreated cytosol plus DRE sample (B-) and treated cytosol sample plus DRE (B+) were then serially diluted 1:1 across the plate, resulting in a serial dilution of DRE in either 200 uL treated or 200 uL untreated cytosol. The last column (A12H12) contained 400 uL, so 200 uL of that was discarded. Highest dilution of DRE in column A1-H1 was arbitrarily called 1, with the other dilutions labeled 0.5, 0.25 . . . 0.0005 respectively.
The ELISA plate was incubated with gentle rocking for 2 hours to allow the transformaton of Ah receptor, binding of Ah receptor with ARNT, and binding of the Ah receptor/ARNT complex to the biotinylated DRE, and binding of the biotinylated DRE to the neutravidin bound to the ELISA plate.
After 2 hours the plate was washed 3 times with 300 uL PBS plus 0.02% tween 20 and 400 uL of the working dilution of anti-ARNT added to rows A1-A12 and E1-E12 of the ELISA plate. 200 uL of PBS plus 0.02% tween 20 plus 0.1% bovine serum albumin was added to the remaining wells. […] After 2 hours the plate was washed as before and working dilution (1:1000) of anti-rabbit/alkaline phosphatase conjugate was added to all wells. The plate was incubated for a further 1 hour at room temperature with gentle rocking and then washed as before. PnPP stock was added to each well (200 uL) and the plate was incubated for 1 hour, at which time it was read at 405 nm in an ELISA plate reader and milli O.D. recorded.

transformed Ah receptor/ARNT complex, sequence (Q6J287 1-846): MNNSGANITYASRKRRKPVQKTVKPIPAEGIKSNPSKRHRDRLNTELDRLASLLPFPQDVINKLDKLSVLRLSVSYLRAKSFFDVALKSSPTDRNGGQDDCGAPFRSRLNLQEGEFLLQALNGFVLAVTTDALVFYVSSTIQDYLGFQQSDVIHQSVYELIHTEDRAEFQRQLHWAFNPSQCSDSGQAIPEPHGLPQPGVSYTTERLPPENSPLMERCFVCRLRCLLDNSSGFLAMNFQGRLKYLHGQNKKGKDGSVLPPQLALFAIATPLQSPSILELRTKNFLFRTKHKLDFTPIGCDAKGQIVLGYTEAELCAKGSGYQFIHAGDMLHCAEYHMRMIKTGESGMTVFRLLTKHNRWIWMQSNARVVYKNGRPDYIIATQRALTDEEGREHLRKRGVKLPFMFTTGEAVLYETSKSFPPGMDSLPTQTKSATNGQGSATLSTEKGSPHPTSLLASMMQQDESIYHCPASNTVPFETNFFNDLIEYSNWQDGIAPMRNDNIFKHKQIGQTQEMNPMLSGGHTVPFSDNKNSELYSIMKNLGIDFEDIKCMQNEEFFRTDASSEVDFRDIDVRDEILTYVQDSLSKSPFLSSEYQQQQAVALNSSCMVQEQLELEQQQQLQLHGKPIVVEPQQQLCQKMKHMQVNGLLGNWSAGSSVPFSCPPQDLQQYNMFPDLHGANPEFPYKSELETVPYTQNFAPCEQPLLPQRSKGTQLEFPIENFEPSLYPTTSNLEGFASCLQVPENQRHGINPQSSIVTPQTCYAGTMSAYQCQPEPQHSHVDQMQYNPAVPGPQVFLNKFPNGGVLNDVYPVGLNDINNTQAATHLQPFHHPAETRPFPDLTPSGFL
transformed Ah receptor/ARNT complex, sequence (Q0WXX3 1-790 partner): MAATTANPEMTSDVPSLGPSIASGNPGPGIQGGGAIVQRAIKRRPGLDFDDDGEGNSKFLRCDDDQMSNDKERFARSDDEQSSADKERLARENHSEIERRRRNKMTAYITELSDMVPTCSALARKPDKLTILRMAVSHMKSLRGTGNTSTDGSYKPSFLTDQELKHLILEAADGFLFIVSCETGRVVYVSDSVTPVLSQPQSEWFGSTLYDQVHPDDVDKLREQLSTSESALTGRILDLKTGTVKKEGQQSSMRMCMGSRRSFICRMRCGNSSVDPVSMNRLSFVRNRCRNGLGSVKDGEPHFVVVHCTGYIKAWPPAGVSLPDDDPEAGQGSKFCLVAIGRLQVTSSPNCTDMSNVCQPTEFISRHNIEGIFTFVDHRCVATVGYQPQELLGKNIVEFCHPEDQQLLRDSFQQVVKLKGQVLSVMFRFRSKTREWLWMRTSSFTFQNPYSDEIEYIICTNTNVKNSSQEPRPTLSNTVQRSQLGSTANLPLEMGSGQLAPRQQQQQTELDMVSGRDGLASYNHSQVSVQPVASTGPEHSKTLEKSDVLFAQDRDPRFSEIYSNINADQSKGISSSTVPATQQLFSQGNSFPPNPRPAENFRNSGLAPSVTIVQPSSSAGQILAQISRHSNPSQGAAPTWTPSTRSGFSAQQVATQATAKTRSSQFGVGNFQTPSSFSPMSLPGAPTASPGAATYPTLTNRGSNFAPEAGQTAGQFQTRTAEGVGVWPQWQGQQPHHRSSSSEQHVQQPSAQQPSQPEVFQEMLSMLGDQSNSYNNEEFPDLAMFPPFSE

Clc1cc2c(cc1Cl)Oc1cc(Cl)c(Cl)cc1O2 [TCDD, 2,3,7,8-tetrachlorodibenzo-p-dioxin]
response in sandwich ELISA (Example 7 conclusion): gives a differential response | O.D. at 405 nm (anti-ARNT dilution 0.000625, DRE dilution 0.002, TCDD (+)): 463 milli O.D. | O.D. at 405 nm (anti-ARNT dilution 0.000625, DRE dilution 0.004, TCDD (+)): 595 milli O.D. | O.D. at 405 nm (anti-ARNT dilution 0.000625, DRE dilution 0.008, TCDD (+)): 726 milli O.D. | O.D. at 405 nm (anti-ARNT dilution 0.000625, DRE dilution 0.016, TCDD (+)): 639 milli O.D. | O.D. at 405 nm (anti-ARNT dilution 0.000625, DRE dilution 0.031, TCDD (+)): 562 milli O.D. | O.D. at 405 nm (anti-ARNT dilution 0.000625, DRE dilution 0.063, TCDD (+)): 480 milli O.D. | O.D. at 405 nm (anti-ARNT dilution 0.000625, DRE dilution 0.125, TCDD (+)): 411 milli O.D. | O.D. at 405 nm (anti-ARNT dilution 0.000625, DRE dilution 0.25, TCDD (+)): 392 milli O.D. | O.D. at 405 nm (anti-ARNT dilution 0.000625, DRE dilution 0.5, TCDD (+)): 393 milli O.D. | O.D. at 405 nm (anti-ARNT dilution 0.000625, DRE dilution 1, TCDD (+)): 408 milli O.D. | O.D. at 405 nm (anti-ARNT dilution 0.000625, DRE dilution 1E-03, TCDD (+)): 442 milli O.D. | O.D. at 405 nm (anti-ARNT dilution 0.000625, DRE dilution 5E-04, TCDD (+)): 480 milli O.D. | O.D. at 405 nm (anti-ARNT dilution 0.00125, DRE dilution 0.002, TCDD (+)): 595 milli O.D. | O.D. at 405 nm (anti-ARNT dilution 0.00125, DRE dilution 0.004, TCDD (+)): 932 milli O.D. | O.D. at 405 nm (anti-ARNT dilution 0.00125, DRE dilution 0.008, TCDD (+)): 1070 milli O.D. | O.D. at 405 nm (anti-ARNT dilution 0.00125, DRE dilution 0.016, TCDD (+)): 916 milli O.D. | O.D. at 405 nm (anti-ARNT dilution 0.00125, DRE dilution 0.031, TCDD (+)): 767 milli O.D. | O.D. at 405 nm (anti-ARNT dilution 0.00125, DRE dilution 0.063, TCDD (+)): 537 milli O.D. | O.D. at 405 nm (anti-ARNT dilution 0.00125, DRE dilution 0.125, TCDD (+)): 487 milli O.D. | O.D. at 405 nm (anti-ARNT dilution 0.00125, DRE dilution 0.25, TCDD (+)): 406 milli O.D. | O.D. at 405 nm (anti-ARNT dilution 0.00125, DRE dilution 0.5, TCDD (+)): 393 milli O.D. | O.D. at 405 nm (anti-ARNT dilution 0.00125, DRE dilution 1, TCDD (+)): 387 milli O.D. | O.D. at 405 nm (anti-ARNT dilution 0.00125, DRE dilution 1E-03, TCDD (+)): 484 milli O.D. | O.D. at 405 nm (anti-ARNT dilution 0.00125, DRE dilution 5E-04, TCDD (+)): 498 milli O.D. | O.D. at 405 nm (anti-ARNT dilution 0.0025, DRE dilution 0.002, TCDD (+)): 922 milli O.D. | O.D. at 405 nm (anti-ARNT dilution 0.0025, DRE dilution 0.004, TCDD (+)): 1281 milli O.D. | O.D. at 405 nm (anti-ARNT dilution 0.0025, DRE dilution 0.008, TCDD (+)): 1682 milli O.D. | O.D. at 405 nm (anti-ARNT dilution 0.0025, DRE dilution 0.016, TCDD (+)): 1486 milli O.D. | O.D. at 405 nm (anti-ARNT dilution 0.0025, DRE dilution 0.031, TCDD (+)): 1125 milli O.D. | O.D. at 405 nm (anti-ARNT dilution 0.0025, DRE dilution 0.063, TCDD (+)): 804 milli O.D. | O.D. at 405 nm (anti-ARNT dilution 0.0025, DRE dilution 0.125, TCDD (+)): 608 milli O.D. | O.D. at 405 nm (anti-ARNT dilution 0.0025, DRE dilution 0.25, TCDD (+)): 532 milli O.D. | O.D. at 405 nm (anti-ARNT dilution 0.0025, DRE dilution 0.5, TCDD (+)): 544 milli O.D. | O.D. at 405 nm (anti-ARNT dilution 0.0025, DRE dilution 1, TCDD (+)): 585 milli O.D. | O.D. at 405 nm (anti-ARNT dilution 0.0025, DRE dilution 1E-03, TCDD (+)): 680 milli O.D. | O.D. at 405 nm (anti-ARNT dilution 0.0025, DRE dilution 5E-04, TCDD (+)): 722 milli O.D. | O.D. at 405 nm (anti-ARNT dilution 0.005, DRE dilution 0.002, TCDD (+)): 1524 milli O.D. | O.D. at 405 nm (anti-ARNT dilution 0.005, DRE dilution 0.004, TCDD (+)): 2029 milli O.D. | O.D. at 405 nm (anti-ARNT dilution 0.005, DRE dilution 0.008, TCDD (+)): 2558 milli O.D. | O.D. at 405 nm (anti-ARNT dilution 0.005, DRE dilution 0.016, TCDD (+)): 2122 milli O.D. | O.D. at 405 nm (anti-ARNT dilution 0.005, DRE dilution 0.031, TCDD (+)): 1706 milli O.D. | O.D. at 405 nm (anti-ARNT dilution 0.005, DRE dilution 0.063, TCDD (+)): 1202 milli O.D. | O.D. at 405 nm (anti-ARNT dilution 0.005, DRE dilution 0.125, TCDD (+)): 963 milli O.D. | O.D. at 405 nm (anti-ARNT dilution 0.005, DRE dilution 0.25, TCDD (+)): 777 milli O.D. | O.D. at 405 nm (anti-ARNT dilution 0.005, DRE dilution 0.5, TCDD (+)): 765 milli O.D. | O.D. at 405 nm (anti-ARNT dilution 0.005, DRE dilution 1, TCDD (+)): 771 milli O.D. | O.D. at 405 nm (anti-ARNT dilution 0.005, DRE dilution 1E-03, TCDD (+)): 1070 milli O.D. | O.D. at 405 nm (anti-ARNT dilution 0.005, DRE dilution 5E-04, TCDD (+)): 1191 milli O.D.
